For 1 compound, Kd results are on record in patent US7879907B2, “3-phenylpropanoic compound activators of receptors of PPAR type and pharmaceutical/cosmetic compositions comprised thereof” (Galderma Research & Development, priority 2007, dated 2011).

This test concerns the target T1, PPARγ (Gal-hPPAR) (Homo sapiens, UniProt P37231).
T1 construct: The reporter is printed as ERE-βGlob-Luc-SV-Neo
T1 sequence (P37231 238-505 limits assumed): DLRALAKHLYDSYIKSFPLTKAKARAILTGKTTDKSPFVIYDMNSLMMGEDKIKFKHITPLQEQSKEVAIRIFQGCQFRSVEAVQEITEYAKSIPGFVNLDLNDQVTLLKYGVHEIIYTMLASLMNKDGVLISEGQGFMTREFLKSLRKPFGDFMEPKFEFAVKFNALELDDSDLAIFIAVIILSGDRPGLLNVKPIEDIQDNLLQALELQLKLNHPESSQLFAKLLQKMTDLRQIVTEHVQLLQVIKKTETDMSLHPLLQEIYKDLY
The test can be described thus: Cross-curve PPAR transactivation test (luciferase reporter, HeLN cells), PPARγ. Type of test: cell-based. The following applies: HeLN stable transfectants; Schild regression against reference agonist; apparent Kd; read-out: PPAR gamma Kd app. The method, then:
The activation of PPAR receptors with an agonist (activator) in HeLN cells leads to the expression of a reporter gene, luciferase, which, in the presence of a substrate, generates light. The modulation of the PPAR receptors is measured by quantifying the luminescence produced after incubating the cells in the presence of a reference agonist. The ligands displace the agonist from its site. The measurement of the activity is performed by quantifying the light produced. This measurement makes it possible to determine the modulatory activity of the compounds according to the invention by determining the constant that is the affinity of the molecule for the PPAR receptor. Since this value can fluctuate depending on the basal activity and the expression of the receptor, it is referred to as Kd apparent (KdApp in nM).
To determine this constant, “cross curves” of the test product against a reference agonist are produced in a 96-well plate: 10 concentrations of the test product plus a concentration 0 are arranged in a line, and 7 concentrations of the agonist plus a concentration 0 are arranged in a column. This is 88 measurement points for 1 product and 1 receptor. […]
The various dilutions of the test products and of the reference ligand are added at a rate of 5 μl per well. […] After 5 minutes, the plates are read by the luminescence detector.

Consider `CCCCOc1cc(CCC(=O)O)ccc1CCCc1ccc(OS(=O)(=O)CCCC)c(OC)c1` [Example 5, 3-(4-{3-[4-(butane-1-sulfonyloxy)-3-methoxyphenyl]propyl}-3-butoxyphenyl)propanoic acid], for which the Kd is 8 nM.
